Reference: US12584916B2, “Method for measuring the modulation of the activation of a G protein-coupled receptor with GTP analogues” (CISBIO BIOASSAYS, priority 2019, dated 2026)

Tests used:
Delta Opioid GPCR = target: T1, Delta Opioid GPCR (Homo sapiens, UniProt P41143); assay: Activation test according to format 2A on Delta Opioid GPCR (antagonist mode); assay type: biochemical; conditions: Example 15; SNC162 200 nM fixed; increasing antagonist concentration; GTPgN-octyl-C2 6 nM + DSV36S-d2 10 nM; CHO-DOR membranes; NaCl 300 mM; GDP 0.5 μM
T1 construct: purchased Perkin Elmer or Euroscreen
T1 sequence (P41143 whole entry): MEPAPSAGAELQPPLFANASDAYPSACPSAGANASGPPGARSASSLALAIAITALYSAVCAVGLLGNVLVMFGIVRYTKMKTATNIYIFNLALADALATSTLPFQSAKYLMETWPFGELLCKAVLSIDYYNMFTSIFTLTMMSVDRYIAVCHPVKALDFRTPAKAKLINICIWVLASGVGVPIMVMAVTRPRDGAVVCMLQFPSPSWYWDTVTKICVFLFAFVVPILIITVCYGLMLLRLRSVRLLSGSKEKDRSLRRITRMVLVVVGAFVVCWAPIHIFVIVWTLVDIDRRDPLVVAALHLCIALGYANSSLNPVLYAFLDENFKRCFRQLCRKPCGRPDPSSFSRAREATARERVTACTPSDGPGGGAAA
Experimental: All the reagents were diluted in TrisHCl buffer 50 mM pH 7.4, MgCl2 10 mM, BSA 0.1%, NaCl 10 mM or 100 mM or 300 mM or 500 mM (concentration specified in the legend of each figure), 0 or 0.5 or 1 μM GDP (concentration specified in the legend of each figure). The membranes were prepared 4× for distributing 1 or 10 μg/well (amount specified in the legend of each figure). The nucleotide GTPgS (nonspecific signal condition) was prepared 6.67× to obtain a final concentration in the wells of 100 μM. The test compounds (agonists or antagonists) were prepared 10× to obtain the final concentrations in the wells mentioned in the diagrams. […]
• Membranes expressing the GPCR and the G protein: 5 μL • Buffer or GTPgS nucleotide (for the nonspecific signal condition): 3 μL • Nonhydrolyzable/slowly hydrolyzable GTP analogue—donor or acceptor: 5 μL • anti G-alphai-donor or acceptor ligand: 5 μL • Buffer or test compounds (agonists and/or antagonists): 2 μL. The nonspecific signal (fluorescence background noise) was measured with wells containing an excess of GTPgS (100 μM). Reading the HTRF Signal […]
From the raw signals at 665 nm (for red acceptor—Cy5) or 520 nm (for green acceptors—AF488 or Fluorescein) and 620 nm, the HTRF Ratio was calculated from the following formula: HTRF Ratio=Signal at 665 nm or Signal at 520 nm/Signal at 620 nm*10.000. […]

[1] = target: switch II domain of the alphai G-protein (Homo sapiens, UniProt P63096); assay: Binding site of the anti-G-alphai antibodies
Sequence of switch II domain of the alphai G-protein (P63096 whole entry, the tested form may be a part): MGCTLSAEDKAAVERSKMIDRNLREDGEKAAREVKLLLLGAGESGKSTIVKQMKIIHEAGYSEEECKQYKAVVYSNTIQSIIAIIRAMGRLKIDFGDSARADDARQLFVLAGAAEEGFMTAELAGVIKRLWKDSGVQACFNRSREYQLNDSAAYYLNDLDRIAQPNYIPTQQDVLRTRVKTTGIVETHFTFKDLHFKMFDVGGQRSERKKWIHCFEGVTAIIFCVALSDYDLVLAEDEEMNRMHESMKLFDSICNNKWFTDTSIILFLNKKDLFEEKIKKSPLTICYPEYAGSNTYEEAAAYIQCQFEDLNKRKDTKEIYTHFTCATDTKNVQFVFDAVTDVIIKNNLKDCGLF

## Oc1ccc2c3c1O[C@H]1c4[nH]c5ccccc5c4C[C@@]4(O)[C@@H](C2)N(CC2CC2)CC[C@]314 [Naltrindole]
Delta Opioid GPCR
  inhibition of activation by agonist SNC162 (decrease in the TR-FRET signal, HTRF Ratio): inhibited

B1: DSV36S: anti-G-alphai antibody of Cisbio Bioassays, VH SEQ ID NO: 15 and VL SEQ ID NO: 16; used labeled with d2 or Lumi4Tb (antibody, V domains shown)
VH: EVQLQQSGAELVRPGALVKLSCKASGFNIKDYYMHWVKQRPEQGLEWIGWIDPENGNTIYDPKFQGKASITADTSSNTAYLQLSSLTSEDTAVYYCTRGGGYYSDWYFDVWGAGTTVTVSS
VL: QIVLTQSPAIMSASPGEKVTMTCSASSSVSYMHWYQQKSGTSPKRWIYDTSKLASGVPARFSGSGSGTSYSLTISSMEAEDAATYYCQQWSSNPPITFGAGTKLELK
modifications: d2 or Lumi4Tb label; Heavy chain variable domain (VH); Light chain variable domain (VL)
[1]
  binding site on the alphai G-protein: bind at the level of the switch II domain of the alphai G-protein
